According to patent US12023421B2, “Medical devices for continuous delivery of therapeutic agents” (Adenopaint LLC, priority 2019, dated 2024):
≈ marks a conversion by molar mass, not a printed value.

Columns and labels:
[1] = test system: Yucatan mini-pigs; assay: Acetylcholine-induced coronary vasoconstriction (no-reflow) in the pig (Example 6, second protocol); type: in vivo; conditions: 0.3 to 1.0 mg/min infused into the LAD for 20 to 30 min; preliminary studies
Description: Animal Studies: All porcine studies were approved by Institutional Animal Care and the Committee of Synchrony Labs LLC, NC. Yucatan mini pigs (25 to 30 Kg) were premeditated with Telazol (5 mg/Kg). Anesthesia was maintained with 1% isoflurane and supplemental oxygen to maintain a pH of 7.4±0.6. Animals received aspirin 300 mg orally for three days prior to the study and were anticoagulated throughout the procedure with heparin (150 units/kg) to maintain ACT greater than 300. Heart rate, EKG changes and blood pressure were monitored continuously utilizing leads I, AVF and AVL with a 6 F sheath in the left femoral artery. […] Coronary blood flow velocity (CFV) was measured utilizing a 0.014-inch Doppler flowwire (Combowire, Volcano Corporation, Rancho Cordova, CA, USA) and dedicated software. CFV was measured as a continuous average pulse wave velocity over 4 seconds and mean values were recorded every 60 seconds.
In the second protocol the ability of the wire to prevent and reverse intense vasoconstriction induced by intracoronary administration of acetylcholine (Ach) was evaluated. […] In other experiments, we evaluated whether an adenosine-releasing wire could prevent the NRF by placing the adenosine-loaded wire initially into the LAD. […]
For statistical analyses, data are expressed as mean±SEM. […]

[2] = in plasma or blood; cited from earlier work
[3] = cited from earlier work
[4] = In vitro drug elution from coated guidewires in phosphate-buffered saline at 37° C. (UV 260 nm); type: physicochemical
Description: FIG. 4 illustrates representative time release of a therapeutic agent, adenosine, from the distal 10 cm of three guidewires with two coats of PVA/PVP polymer cured with 2 freeze/thaw cycles. The inner therapeutic coat was a 7.5% (w/w) of PVA/PVP with 1.5 mg of adenosine added as described in the application. The outer barrier layer was made of 10.0% (w/w) of PVA/PVP. The guidewire was placed in a beaker containing phosphate-buffered saline at 37° C. that was constantly stirred with a magnetic device. Samples were taken periodically from the beaker and analyzed for adenosine amount by UV spectrophotometry (absorption at 260 nm). Note the complete elution of the drug in a curvilinear fashion over 60 minutes.
Note that elution was more rapid with greater than 90% eluted over 20 minutes.
FIG. 6 illustrates a representative example of an extremely rapid elution of another drug diltiazem utilizing a polymer with a ratio of PVA/PVAC and two freeze/thaw cycles. The drug was completely eluted over 10 minutes.
Utilizing the same protocol as Example 1, the freeze/thaw cycles were increased to 3-8 and the barrier concentration was increased to 15.0% (w/w). Utilizing adenosine as the prototype therapeutic agent the elution profile was increased with the majority of drug elution occurring in 30 min.

[5] = Particle size stability of jet-milled adenosine in hydrogel (laser diffraction and optical microscopy); type: physicochemical; conditions: after one week in the hydrogel; particles less than 5 microns
Description: Next, the inner drug layer was prepared. In this regard, a 20% w/w solution of PVA/PVP (99:1 mass ratio) in DI water was prepared and autoclaved for 1 hr while stirring. This yielded a supersaturated solution which was homogeneous and free of bubbles. Using a water bath, the temperature of the PVA/PVP solution was maintained at 65° C. In order to create a sufficient drug load on the wire, a 25% concentration of adenosine was used in the drug layer. Adenosine has poor solubility in water ([…]) and commercial adenosine has a mean particle size of 55 microns which would have compromised the lubricity of the wire. Utilizing a two-pass jet-milling process, the solid phase adenosine particles were reduced in size to less than 5 microns. Micronized adenosine was mixed in DI water, sonicated for 15 min and then added to the PVA/PVP mixture and the PVA/PVP/adenosine mixture was stirred until a homogeneous solution was obtained. […] Next, the guidewire coated with the PEG-silanol primer was coated with the adenosine-containing hydrogel. Multiple hydroxyl groups in the hydrogel form hydrogen bonds with multiple ether oxygens in the primer, thus creating an extensive network of hydrogen bonds between the drug-containing hydrogel layer and the primer layer (FIG. 14, Reaction 4).

[6] = In vitro release studies in 0.9% saline at 37° C. (Example 6); type: physicochemical
Description: In vitro release studies were performed in 0.9% saline rather than in plasma or blood because adenosine has a short half-life (seconds) in the latter two media making detection difficult. Tubes containing 15 ml saline were maintained at 37° C. and 10 cm of the spaced coiled section of the guidewire was placed serially in tubes for 0 to 5, 5 to 10, 10 to 20, 20 to 30, 30 to 40, 40 to 50, and 50 to 60 minutes. One ml samples were then taken from the tube to measure the concentration of adenosine by spectrophotometry (Jackson E K, Mi Z, Koehler M T, Carcillo J A Jr, Herzer W A. Injured erythrocytes release adenosine deaminase into the circulation. J Pharmacol Exp Ther 1996; 279: 1250-60).

[7] = test system: coronary flow velocity; conditions: continuous infusion into the LAD at 50 μg/kg/min; previous studies; cited from earlier work

For CC(=O)OCC[N+](C)(C)C [Ach, acetylcholine], the “reduction in CBFV” value [1] was about 80%.

For Nc1ncnc2c1ncn2[C@@H]1O[C@H](CO)[C@@H](O)[C@H]1O [adenosine, Adenosine], the half-life [2] is listed as “seconds”, the solubility in water [3] is listed as 80 mg/mL (≈ 299 mM) and the “time in which the majority of drug elution occurred” value ([4]; Example 2, protocol of Example 1 with 3-8 freeze/thaw cycles and barrier concentration 15.0% (w/w)) is listed as 30 min. The “time of complete elution of the drug from guidewire” value ([4]; FIG. 4, distal 10 cm of guidewires, inner coat 7.5% (w/w) PVA/PVP with 1.5 mg adenosine, outer barrier 10.0% (w/w) PVA/PVP, 2 freeze/thaw cycles, curvilinear) was 60 min, the “drug eluted over 20 minutes” value ([4]; FIG. 5, 8 freeze/thaw cycles, polymer 10% inner and 15% outer layer) was “greater than 90%” and the “release profile” value ([4]; FIG. 7, guidewires coated with polymer mixture of 3:1 and 1:1 ratios of PVAC to PVA) was “optimal for a typical coronary interventional procedure”. For the same compound, the “particle size stability in the hydrogel” value [5] was “stable”, the “time by which most of the remainder was released” value ([6]; Example 6 guidewires) was at most 40 min and the “total amount of released adenosine” value ([6]; Example 6 guidewires (PVA/PVP drug layer, PVA/PVAc 1:3 barrier), over 60 min) was 2.7±0.2 mg/10 cm length of wire. For the same compound, the “adenosine released in the first 20 min” value ([6]; Example 6 guidewires, relative to 60-min timepoint) was “approximately 60%” and the “increase in CFV” value [7] was “approximately 250%”.

For COc1ccc([C@@H]2Sc3ccccc3N(CCN(C)C)C(=O)[C@@H]2OC(C)=O)cc1 [diltiazem], the “time of complete elution of the drug from guidewire” value ([4]; FIG. 6, polymer with a ratio of PVA/PVAC, two freeze/thaw cycles) was 10 min.
